{"source": "patent US10294236B2", "about": "“Compounds as rearranged during transfection (RET) inhibitors” (GLAXOSMITHKLINE INTELLECTUAL PROPERTY DEVELOPMENT LIMITED, priority 2014, dated 2019)", "note": "Structures can show the parent of a compound that is named as a salt.", "data": [{"target": "T1, Human RET kinase cytoplasmic domain (Homo sapiens, UniProt P07949)", "T1 construct": "made in house", "T1 sequence (P07949 658-1114)": "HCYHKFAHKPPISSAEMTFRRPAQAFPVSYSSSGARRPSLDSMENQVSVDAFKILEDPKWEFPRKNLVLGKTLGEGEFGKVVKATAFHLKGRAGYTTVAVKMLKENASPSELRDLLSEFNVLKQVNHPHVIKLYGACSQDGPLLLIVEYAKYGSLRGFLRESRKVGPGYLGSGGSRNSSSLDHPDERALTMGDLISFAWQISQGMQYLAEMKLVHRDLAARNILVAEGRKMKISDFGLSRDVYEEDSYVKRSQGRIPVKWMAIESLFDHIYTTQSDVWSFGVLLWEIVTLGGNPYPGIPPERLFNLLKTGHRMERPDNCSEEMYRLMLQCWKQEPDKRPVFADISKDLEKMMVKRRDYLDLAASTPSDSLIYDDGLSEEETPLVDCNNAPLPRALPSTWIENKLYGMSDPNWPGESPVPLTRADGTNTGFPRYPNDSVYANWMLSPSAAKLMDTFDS", "assay": "RET kinase enzymatic assay", "type": "biochemical", "in_short": "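GST-RET, 0.2 nM in 2× enzyme mix (HEPES, CHAPS, BSA, DTT), preincubated with inhibitor 30 min at 23 °C. Reaction for 1 h at 23 °C after adding 2× substrate mix: 20 μM ATP, 20 mM MgCl2, 1 μM biotinylated peptide. Single wells per concentration; IC50 from sigmoidal dose-response fit.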", "units": {"IC50": "nM"}, "values": [{"smiles": "CCCOc1cc(-c2ccc(NC(=O)Nc3ccc(OC4(C)COC4)c(C(F)(F)F)c3)c(F)c2)c[nH]c1=O", "note": "[Example 138]", "IC50": "< 100"}, {"smiles": "CCOc1cc(-c2ccc(NC(=O)Nc3ccc(OC(C)(C)CF)c(C(F)(F)F)c3)c(F)c2)c[nH]c1=O", "note": "[Example 139]", "IC50": "< 100"}, {"smiles": "CCOc1cc(-c2ccc(NC(=O)Nc3ccc(OC4(C)COC4)c(C(F)(F)F)c3)cc2)c[nH]c1=O", "note": "[Example 140]", "IC50": "< 100"}, {"smiles": "CCOc1cc(-c2ccc(NC(=O)Nc3cc(C(F)(F)F)ccc3O)c(F)c2)c[nH]c1=O", "note": "[Example 141]", "IC50": "< 100"}, {"smiles": "CCOc1cc(-c2ccc(NC(=O)Nc3ccc(OCCO)c(C(F)(F)F)c3)c(F)c2)c[nH]c1=O", "note": "[Example 143]", "IC50": "< 100"}, {"smiles": "CCOc1cc(-c2ccc(NC(=O)Nc3ccc(OC4(C)CCN(C)C4)c(C(F)(F)F)c3)c(F)c2)c[nH]c1=O", "note": "(stereo not drawn) [Example 144]", "IC50": "< 100"}, {"smiles": "CCOc1cc(-c2ccc(NC(=O)Nc3ccc(OCC(C)O)c(C(F)(F)F)c3)c(F)c2)c[nH]c1=O", "note": "(stereo not drawn) [Example 145]", "IC50": "< 100"}, {"smiles": "CCOc1cc(-c2ccc(NC(=O)Nc3ccc(Cc4cnn(C)c4)c(C(F)(F)F)c3)c(F)c2)c[nH]c1=O", "note": "[Example 146]", "IC50": "< 100"}, {"smiles": "CC1(Oc2ccc(NC(=O)Nc3ccc(-c4ccc(=O)[nH]c4)cc3F)cc2C(F)(F)F)COC1", "note": "[Example 147]", "IC50": "< 100"}, {"smiles": "CCOc1cc(-c2ccc(NC(=O)Nc3cnc(OC4(C)COC4)c(C(F)(F)F)c3)c(F)c2)c[nH]c1=O", "note": "[Example 148]", "IC50": "< 100"}, {"smiles": "CCOc1cc(-c2ccc(NC(=O)Nc3ccc(OC4(C)CCC4)c(C(F)(F)F)c3)c(F)c2)c[nH]c1=O", "note": "[Example 149]", "IC50": "< 100"}, {"smiles": "CCOc1cc(-c2ccc(NC(=O)Nc3ccc(OC4(C)CS(=O)(=O)C4)c(C(F)(F)F)c3)c(F)c2)c[nH]c1=O", "note": "[Example 150]", "IC50": "< 100"}, {"smiles": "CCOCc1ccc(NC(=O)Nc2ccc(-c3c[nH]c(=O)c(OCC)c3)cc2F)cc1C(F)(F)F", "note": "[Example 151]", "IC50": "< 100"}, {"smiles": "CCOc1cc(-c2ccc(NC(=O)Nc3ccc(Cl)c(C(F)(F)F)c3)c(F)c2)c[nH]c1=O", "note": "[Example 152]", "IC50": "< 100"}, {"smiles": "CCOc1cc(F)c(C(F)(F)F)cc1NC(=O)Nc1ccc(-c2c[nH]c(=O)c(OCC)c2)cc1F", "note": "[Example 153]", "IC50": "< 100"}, {"smiles": "CCOc1cc(-c2ccc(NC(=O)Nc3ccc(CN4CC[C@H](F)C4)c(C(F)(F)F)c3)c(F)c2)c[nH]c1=O", "note": "[Example 154]", "IC50": "< 100"}, {"smiles": "O=C(Nc1ccc(-c2c[nH]c(=O)c3occc23)cc1F)Nc1cc(C(F)(F)F)ccc1F", "note": "[Example 155]", "IC50": "< 100"}, {"smiles": "CCOc1cc(-c2ccc(NC(=O)Nc3ccc(F)c(C(F)(F)F)c3)c(F)c2)c[nH]c1=O", "note": "[Example 156]", "IC50": "< 100"}, {"smiles": "CC1(Oc2ccc(NC(=O)Nc3ccc(-c4ccc(=O)[nH]c4)cc3)cc2C(F)(F)F)COC1", "note": "[Example 157]", "IC50": "< 100"}, {"smiles": "CCOc1cc(-c2ccc(NC(=O)Nc3ccc(C#N)c(C(F)(F)F)c3)c(F)c2)c[nH]c1=O", "note": "[Example 158]", "IC50": "< 100"}, {"smiles": "CCOc1cc(-c2ccc(NC(=O)Nc3ccc(OC(C)(C)COC)c(C(F)(F)F)c3)c(F)c2)c[nH]c1=O", "note": "[Example 159]", "IC50": "< 100"}, {"smiles": "CCOc1cc(-c2ccc(NC(=O)Nc3ccc(OC(C)C)c(C(F)F)c3)cc2F)c[nH]c1=O", "note": "[Example 160]", "IC50": "< 100"}, {"smiles": "CCOc1cc(-c2ccc(NC(=O)Nc3ccc(OC4CC(F)(F)C4)c(C(F)(F)F)c3)c(F)c2)c[nH]c1=O", "note": "[Example 161]", "IC50": "< 100"}, {"smiles": "CCOc1cc(-c2ccc(NC(=O)Nc3ccc(C(N)=O)c(C(F)(F)F)c3)c(F)c2)c[nH]c1=O", "note": "[Example 162]", "IC50": "< 100"}, {"smiles": "CC(C)Oc1ccc(NC(=O)Nc2ccc(-c3ccc(=O)[nH]c3)cc2)cc1C(F)(F)F", "note": "[Example 163]", "IC50": "< 100"}, {"smiles": "O=C(Nc1ccc(OCCO)c(C(F)(F)F)c1)Nc1ccc(-c2c[nH]c(=O)c(OC(F)F)c2)cc1F", "note": "[Example 164]", "IC50": "< 100"}, {"smiles": "CCOc1cc(-c2ccc(NC(=O)Nc3ccc(CCN(C)C)c(C(F)(F)F)c3)c(F)c2)c[nH]c1=O", "note": "[Example 165]", "IC50": "< 100"}, {"smiles": "CCOc1cc(-c2ccc(NC(=O)Nc3ccc(OC4(C)COC4)c(C(F)(F)F)c3F)c(F)c2)c[nH]c1=O", "note": "[Example 166]", "IC50": "< 100"}, {"smiles": "CCOc1cc(-c2ccc(NC(=O)Nc3ccc(OC4(C)CCOC4)c(C(F)(F)F)c3)c(F)c2)c[nH]c1=O", "note": "(stereo not drawn) [Example 167]", "IC50": "< 100"}, {"smiles": "Cc1cc(=O)[nH]cc1-c1ccc(NC(=O)Nc2ccc(OC3(C)COC3)c(C(F)(F)F)c2)c(F)c1", "note": "[Example 168]", "IC50": "< 100"}, {"smiles": "CC1(Oc2ccc(NC(=O)Nc3ccc(-c4ccc(=O)[nH]c4)cc3)cc2C(F)F)COC1", "note": "[Example 169]", "IC50": "< 100"}, {"smiles": "CCOc1cc(-c2ccc(NC(=O)Nc3ccc(Cl)c(Cl)c3)c(F)c2)c[nH]c1=O", "note": "[Example 170]", "IC50": "< 100"}, {"smiles": "CCOc1cc(-c2ncc(NC(=O)Nc3cc(C(F)(F)F)c(CN4CCN(CCO)CC4)cc3F)c(C)n2)c[nH]c1=O", "note": "[Example 171, 1-(2-(5-Ethoxy-6-oxo-1,6-dihydropyridin-3-yl)-4-methylpyrimidin-5-yl)-3-(2-fluoro-4-((4-(2-hydroxyethyl)piperazin-1-yl)methyl)-5-(trifluoromethyl)phenyl)urea]", "IC50": "< 100"}, {"smiles": "CCN1CCN(Cc2cc(F)c(NC(=O)Nc3cnc(-c4c[nH]c(=O)c(OCCO)c4)nc3C)cc2C(F)(F)F)CC1", "note": "[Example 172, 1-(4-((4-Ethylpiperazin-1-yl)methyl)-2-fluoro-5-(trifluoromethyl)phenyl)-3-(2-(5-(2-hydroxyethoxy)-6-oxo-1,6-dihydropyridin-3-yl)-4-methylpyrimidin-5-yl)urea]", "IC50": "< 100"}, {"smiles": "Cc1nc(-c2c[nH]c(=O)c(OCCO)c2)ncc1NC(=O)Nc1cc(C(F)(F)F)c(CN2CCN(CCO)CC2)cc1F", "note": "[Example 173, 1-(2-Fluoro-4-((4-(2-hydroxyethyl)piperazin-1-yl)methyl)-5-(trifluoromethyl)phenyl)-3-(2-(5-(2-hydroxyethoxy)-6-oxo-1,6-dihydropyridin-3-yl)-4-methylpyrimidin-5-yl)urea]", "IC50": "< 100"}, {"smiles": "CCOc1cc(-c2ncc(NC(=O)Nc3cc(C(F)(F)F)cc(S(=O)(=O)NCCN(C)C)c3)c(C)n2)c[nH]c1=O", "note": "[Example 174, N-(2-(dimethylamino)ethyl)-3-(3-(2-(5-ethoxy-6-oxo-1,6-dihydropyridin-3-yl)-4-methylpyrimidin-5-yl)ureido)-5-(trifluoromethyl)benzenesulfonamide]", "IC50": "< 100"}, {"smiles": "CCOc1cc(-c2ncc(NC(=O)Nc3ccc(C(C)N)c(C(F)(F)F)c3)c(C)n2)c[nH]c1=O", "note": "(stereo not drawn) [Example 175, 1-(4-(1-Aminoethyl)-3-(trifluoromethyl)phenyl)-3-(2-(5-ethoxy-6-oxo-1,6-dihydropyridin-3-yl)-4-methylpyrimidin-5-yl)urea]", "IC50": "< 100"}, {"smiles": "CCOc1cc(-c2ncc(NC(=O)Nc3ccc(C(C)N(C)C)c(C(F)(F)F)c3)c(C)n2)c[nH]c1=O", "note": "(stereo not drawn) [Example 176, 1-(4-(1-(Dimethylamino)ethyl)-3-(trifluoromethyl)phenyl)-3-(2-(5-ethoxy-6-oxo-1,6-dihydropyridin-3-yl)-4-methylpyrimidin-5-yl)urea]", "IC50": "< 100"}, {"smiles": "CCOc1cc(-c2ncc(NC(=O)Nc3ccc(CCN4CCCC4)c(C(F)(F)F)c3)c(C)n2)c[nH]c1=O", "note": "[Example 177, 1-(2-(5-Ethoxy-6-oxo-1,6-dihydropyridin-3-yl)-4-methylpyrimidin-5-yl)-3-(4-(2-(pyrrolidin-1-yl)ethyl)-3-(trifluoromethyl)phenyl)urea]", "IC50": "< 100"}, {"smiles": "CCOc1cc(-c2ncc(NC(=O)Nc3cc(OCCN(C)C)cc(C(F)(F)F)c3)cn2)c[nH]c1=O", "note": "[Example 178, 1-(3-(2-(dimethylamino)ethoxy)-5-(trifluoromethyl)phenyl)-3-(2-(5-ethoxy-6-oxo-1,6-dihydropyridin-3-yl)pyrimidin-5-yl)urea dihydrochloride]", "IC50": "< 100"}, {"smiles": "CCOc1cc(-c2ncc(NC(=O)Nc3ccc(CN(C)C)c(C(F)(F)F)c3)cn2)c[nH]c1=O", "note": "[Example 179, 1-(4-((Dimethylamino)methyl)-3-(trifluoromethyl)phenyl)-3-(2-(5-ethoxy-6-oxo-1,6-dihydropyridin-3-yl)pyrimidin-5-yl)urea]", "IC50": "< 100"}, {"smiles": "CCOc1cc(=O)[nH]cc1-c1ncc(NC(=O)Nc2cc(C(C)(C)C(F)(F)F)on2)cn1", "note": "[Example 180, 1-(2-(4-Ethoxy-6-oxo-1,6-dihydropyridin-3-yl)pyrimidin-5-yl)-3-(5-(1,1,1-trifluoro-2-methylpropan-2-yl)isoxazol-3-yl)urea hydrochloride]", "IC50": "< 100"}, {"smiles": "CCOc1cc(-c2ncc(NC(=O)Nc3cc(C(C)(C)C(F)(F)F)on3)cn2)c[nH]c1=O", "note": "[Example 181, 1-(2-(5-Ethoxy-6-oxo-1,6-dihydropyridin-3-yl)pyrimidin-5-yl)-3-(5-(1,1,1-trifluoro-2-methylpropan-2-yl)isoxazol-3-yl)urea hydrochloride]", "IC50": "< 100"}, {"smiles": "CCN1CCN(Cc2cc(F)c(NC(=O)Nc3cnc(-c4c[nH]c(=O)cc4OCCOC)nc3C)cc2C(F)(F)F)CC1", "note": "[Example 182, 1-(4-((4-Ethylpiperazin-1-yl)methyl)-2-fluoro-5-(trifluoromethyl)phenyl)-3-(2-(4-(2-methoxyethoxy)-6-oxo-1,6-dihydropyridin-3-yl)-4-methylpyrimidin-5-yl)urea]", "IC50": "< 100"}, {"smiles": "CCOc1cc(-c2ncc(NC(=O)Nc3cc(C(F)(F)F)c(CN4CCN(CC)CC4)cc3F)cn2)c[nH]c1=O", "note": "[Example 183, 1-(2-(5-Ethoxy-6-oxo-1,6-dihydropyridin-3-yl)pyrimidin-5-yl)-3-(4-((4-ethylpiperazin-1-yl)methyl)-2-fluoro-5-(trifluoromethyl)phenyl)urea trihydrochloride]", "IC50": "< 100"}]}]}
